In the first assay the target is vanilloid receptor 1 (VR1/TRPV1 receptor) (Homo sapiens, UniProt Q8NER1). Kind of assay: FLIPR functional assay (Ca2+ influx, capsaicin) on the vanilloid receptor 1. In kind it is cell-based. Particulars: capsaicin (Cap) stimulus, compound at 5 μM.
On to “N-(2-fluoro-5-(3-((2-(4-methylpiperidin-1-yl)-6-(trifluoromethyl)pyridin-3-yl)methyl)ureido)benzyl)methanesulfonamide [Example 65]”, for which the “inhibition (as a percentage) Cap, (human being)” value was determined as 12%@5 μM.

The same assay, now with this note: capsaicin (Cap) stimulus, compound at 5 μM, read-out: inhibition (as a percentage) Cap, (human being).
One may read the inhibition as how much of the control response was suppressed. For the compound `CC1CCN(c2nc(C(F)(F)F)ccc2CNC(=O)C(C)c2ccc(F)c(CNS(C)(=O)=O)c2)CC1` (stereo not shown) [Example 66, 2-(4-fluoro-3-(methylsulfonamidomethyl)phenyl)-N-((2-(4-methylpiperidin-1-yl)-6-(trifluoromethyl)pyridin-3-yl)methyl)propanamide], the inhibition at 5 µM amounted to 58%. Turning to `CCNc1nc(C(F)(F)F)ccc1CNC(=O)C(C)c1ccc(CNS(C)(=O)=O)c(F)c1` (stereo not shown) [Example 8, N-((2-(ethylamino)-6-(trifluoromethyl)pyridin-3-yl)methyl)-2-(3-fluoro-4-(methylsulfonamidomethyl)phenyl)propanamide], the inhibition at 5 µM was found to be 71%. On to `CC(C(=O)NCc1ccc(C(F)(F)F)nc1N1CCCC1)c1cccc(CNS(C)(=O)=O)c1` (stereo not shown) [Example 2, 2-(3-(methylsulfonamidomethyl)phenyl)-N-((2-(pyrrolidin-1-yl)-6-(trifluoromethyl)pyridin-3-yl)methyl)propanamide], for which the inhibition at 5 µM worked out at 48%.

The same assay, now with this note: functional (f), capsaicin (Cap) stimulus, Ki from IC50 by Cheng-Prusoff, read-out: (f) Ki (human being) [nM] Cap.
Usually Ki stands for the dissociation constant of the complex between target and ligand, obtained from inhibition or displacement. `CC(C(=O)NCc1ccc(C(F)(F)F)nc1N1CCCCC1)c1ccc(CNS(C)(=O)=O)c(F)c1` (stereo not shown) [Example 21, 2-(3-fluoro-4-(methylsulfonamidomethyl)phenyl)-N-((2-(piperidin-1-yl)-6-(trifluoromethyl)pyridin-3-yl)methyl)propanamide]: the Ki amounted to 5 nM. Regarding `CC1CCN(c2nc(C(F)(F)F)ccc2CNC(=O)C(C)c2ccc(CNS(C)(=O)=O)cc2)CC1` (stereo not shown) [Example 6, N-((2-(4-methylpiperidin-1-yl)-6-(trifluoromethyl)pyridin-3-yl)methyl)-2-(4-(methylsulfonamidomethyl)phenyl)propanamide], the Ki stood at 11 nM.

As to `COc1cc(C(C)C(=O)NCc2ccc(C(F)(F)F)nc2N2CCCC2)ccc1CNS(C)(=O)=O` (stereo not shown) [Example 48, 2-(3-methoxy-4-(methylsulfonamidomethyl)phenyl)-N-((2-(pyrrolidin-1-yl)-6-(trifluoromethyl)pyridin-3-yl)methyl)propanamide], the Ki was 87 nM. With `CS(=O)(=O)NCc1ccc(NC(=O)NCc2ccc(C(F)(F)F)nc2N2CCCC2)cc1` [Example 4, N-(4-(3-((2-(pyrrolidin-1-yl)-6-(trifluoromethyl)pyridin-3-yl)methyl)ureido)benzyl)methanesulfonamide], the Ki turned out to be 26 nM. As for `CC(C(=O)NCc1ccc(C(F)(F)F)nc1N1CCCC1)c1ccc(CNS(C)(=O)=O)c(Cl)c1` (stereo not shown) [Example 45, 2-(3-chloro-4-(methylsulfonamidomethyl)phenyl)-N-((2-(pyrrolidin-1-yl)-6-(trifluoromethyl)pyridin-3-yl)methyl)propanamide], the Ki was determined as 80 nM. On to `Cc1cc(NC(=O)NCc2ccc(C(F)(F)F)nc2N2CCCC2)ccc1CNS(C)(=O)=O` [Example 52, N-(2-methyl-4-(3-((2-(pyrrolidin-1-yl)-6-(trifluoromethyl)pyridin-3-yl)methyl)ureido)benzyl)methanesulfonamide], for which the Ki amounted to 46 nM.

`CC1CCN(c2nc(C(F)(F)F)ccc2CNC(=O)C(C)c2ccc(CNS(C)(=O)=O)c(Cl)c2)CC1` (stereo not shown) [Example 46, 2-(3-chloro-4-(methylsulfonamidomethyl)phenyl)-N-((2-(4-methylpiperidin-1-yl)-6-(trifluoromethyl)pyridin-3-yl)methyl)propanamide]: the Ki was determined as 5 nM.

With `CC1CCN(c2nc(C(F)(F)F)ccc2CNC(=O)Nc2ccc(CNS(N)(=O)=O)c(F)c2)CC1` [Example 61, 1-{3-fluoro-4-[(sulfamoylamino)methyl]phenyl}-3-{[2-(4-methylpiperidin-1-yl)/-6-(trifluoromethyl)pyridin-3-yl]methyl}urea], the Ki stood at 1 nM. Turning to `CC1CCN(c2nc(C(F)(F)F)ccc2CNC(=O)Nc2ccc(CNS(C)(=O)=O)c(O)c2)CC1` [Example 47, N-(2-hydroxy-4-(3-((2-(4-methylpiperidin-1-yl)-6-(trifluoromethyl)pyridin-3-yl)methyl)ureido)benzyl)methanesulfonamide], the Ki came to 6 nM. As for `CCS(=O)(=O)NCc1ccc(C(C)C(=O)NCc2ccc(C(F)(F)F)nc2N2CCCC2)cc1F` (stereo not shown) [Example 54, 2-(4-(ethylsulfonamidomethyl)-3-fluorophenyl)-N-((2-(pyrrolidin-1-yl)-6-(trifluoromethyl)pyridin-3-yl)methyl)propanamide], the Ki was found to be 76 nM. The same measure, in the same setting: the value for `Cc1cc(NC(=O)NCc2ccc(C(F)(F)F)nc2N2CCC(C)CC2)ccc1CNS(C)(=O)=O` [Example 53, N-(2-methyl-4-(3-((2-(4-methylpiperidin-1-yl)-6-(trifluoromethyl)pyridin-3-yl)methyl)ureido)benzyl)methanesulfonamide] was 5 nM; that for `CC1CCN(c2cc(C(F)(F)F)ccc2CNC(=O)C(C)c2ccc(CNS(C)(=O)=O)c(F)c2)CC1` (stereo not shown) [Example 29, 2-(3-fluoro-4-(methylsulfonamidomethyl)phenyl)-N-(2-(4-methylpiperidin-1-yl)-4-(trifluoromethyl)benzyl)propanamide] was 5 nM; that for `NS(=O)(=O)NCc1ccc(CCC(=O)NCc2ccc(C(F)(F)F)nc2N2CCCC2)cc1` [Example 56, 1-{[2-pyrrolidin-1-yl-6-(trifluoromethyl)pyridin-3-yl]methyl}-3-{4-[(sulfamoylamino)methyl]phenyl}propanamide] was 38 nM. `CC1CCN(c2nc(C(F)(F)F)ccc2CNC(=O)C(C)c2ccc(CNS(N)(=O)=O)c(F)c2)CC1` (stereo not shown) [Example 64, 2-(3-fluoro-4-((sulfamoylamino)methyl)phenyl)-N-((2-(4-methylpiperidin-1-yl)-6-(trifluoromethyl)pyridin-3-yl)methyl)propanamide]: the Ki amounted to 4 nM. Turning to `CC1CCN(c2nc(C(F)(F)F)ccc2CNC(=O)C(C)c2ccc(CN(C)S(C)(=O)=O)c(F)c2)CC1` (stereo not shown) [Example 63, 2-(3-fluoro-4-((N-methylmethylsulfonamido)methyl)phenyl)-N-((2-(4-methylpiperidin-1-yl)-6-(trifluoromethyl)pyridin-3-yl)methyl)propanamide], the Ki came out at 55 nM. Turning to `CC1CCN(c2nc(C(F)(F)F)ccc2CNC(=O)Nc2ccc(CNS(C)(=O)=O)c(F)c2)CC1` [Example 24, N-(2-fluoro-4-(3-((2-(4-methylpiperidin-1-yl)-6-(trifluoromethyl)pyridin-3-yl)methyl)ureido)benzyl)methanesulfonamide], the Ki amounted to 5 nM. Still for that read-out and setting: to `CC1CCN(c2nc(C(F)(F)F)ccc2CNC(=O)Nc2ccc(CNS(C)(=O)=O)cc2)CC1` [Example 5, N-(4-(3-((2-(4-methylpiperidin-1-yl)-6-(trifluoromethyl)pyridin-3-yl)methyl)ureido)benzyl)methanesulfonamide] belongs 4 nM. Turning to `CC(C(=O)NCc1ccc(C(F)(F)F)nc1N1CCCC1)c1ccc(CNS(C)(=O)=O)c(F)c1` (stereo not shown) [Example 17, 2-(3-fluoro-4-(methylsulfonamidomethyl)phenyl)-N-((2-(pyrrolidin-1-yl)-6-(trifluoromethyl)pyridin-3-yl)methyl)propanamide], the Ki stood at 23 nM.

The values above are taken from patent publication US8765733B2, “Amine substituted methanesulfonamide derivatives as vanilloid receptor ligands” (Gruenenthal GmbH, priority 2011, dated 2014).
